Data on 27 compounds can be found in patent US7098340B2, “Benzyl sulfonamide derivatives” (Warner Lambert Company LLC, priority 2003, dated 2006).

SMILES strings stand for the structures.

This assay has as its target T1, androgen receptor (Homo sapiens, UniProt P10275).
T1 sequence (P10275 1-920 Q868H): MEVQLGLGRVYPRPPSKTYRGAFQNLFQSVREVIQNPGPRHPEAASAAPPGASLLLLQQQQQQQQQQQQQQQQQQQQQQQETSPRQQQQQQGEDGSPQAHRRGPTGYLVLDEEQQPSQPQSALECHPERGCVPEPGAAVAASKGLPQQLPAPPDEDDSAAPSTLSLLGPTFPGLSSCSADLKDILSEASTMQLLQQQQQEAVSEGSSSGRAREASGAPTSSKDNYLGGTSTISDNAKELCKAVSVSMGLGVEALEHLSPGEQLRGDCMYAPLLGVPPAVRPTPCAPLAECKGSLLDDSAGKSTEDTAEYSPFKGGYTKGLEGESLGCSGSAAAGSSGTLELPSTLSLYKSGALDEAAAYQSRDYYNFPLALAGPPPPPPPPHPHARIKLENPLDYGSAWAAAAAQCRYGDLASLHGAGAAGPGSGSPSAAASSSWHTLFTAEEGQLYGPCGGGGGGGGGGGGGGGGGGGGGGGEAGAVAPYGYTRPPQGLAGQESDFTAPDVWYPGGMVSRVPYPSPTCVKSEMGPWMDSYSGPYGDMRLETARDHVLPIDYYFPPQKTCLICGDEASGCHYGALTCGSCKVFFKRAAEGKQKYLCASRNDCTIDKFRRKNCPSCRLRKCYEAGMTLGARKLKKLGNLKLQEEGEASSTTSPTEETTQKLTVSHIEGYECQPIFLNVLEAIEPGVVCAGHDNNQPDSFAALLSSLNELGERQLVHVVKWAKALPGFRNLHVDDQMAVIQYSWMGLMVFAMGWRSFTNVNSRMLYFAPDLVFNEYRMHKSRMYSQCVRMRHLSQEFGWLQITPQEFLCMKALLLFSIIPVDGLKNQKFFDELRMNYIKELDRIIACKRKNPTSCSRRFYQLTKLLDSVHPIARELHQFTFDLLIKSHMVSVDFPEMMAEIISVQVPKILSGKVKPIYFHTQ
The assay can be described thus: AR Antagonist Cell Assay (MMTV-luciferase reporter, DHT-stimulated). To be noted: MDA-MB453-MMTV clone 54-19 cells; antagonism of 100 pM DHT, 17 hr, luciferase readout. It is filed as cell-based. The gist of the method:
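MDA-MB453 cells stably carrying MMTV-ARE-firefly luciferase, in 1% charcoal-treated serum, preincubated 30 min with compound (10 uM or 1 uM) then stimulated with 100 pM DHT for 17 h at 37° C. Luminescence read; result as % inhibition of DHT fold induction.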
Consider `O=c1cc(C(F)(F)F)c2cc(Cc3ccc(S(=O)(=O)Nc4cccc(OC(F)(F)F)c4)cc3)ccc2[nH]1` [Example 42, 4-(2-Oxo-4-trifluoromethyl-1,2-dihydroquinolin-6-ylmethyl)-N-(3-trifiuoromethoxyphenyl)-benzenesulfonamide], for which the IC50 was > 10 µM.

On to `O=c1cc(C(F)(F)F)c2cc(Cc3ccc(S(=O)(=O)N(Cc4ccccc4)Cc4ccccc4)cc3)ccc2o1` [Example 109, N,N-Dibenzyl-4-(2-oxo-4-trifluoromethyl-2H-chromen-6-ylmethyl)benzenesulfonamide], for which the IC50 is 8.26 µM.

With `O=c1cc(C(F)(F)F)c2cc(Cc3ccc(S(=O)(=O)NC4CCCCCC4)cc3)ccc2o1` [Example 166, N-Cycloheptyl-4-(2-oxo-4-trifluoromethyl-2H-chromen-6-ylmethyl)benzenesulfonamide], the IC50 was determined as 6.97 µM.

`O=c1cc(C(F)(F)F)c2cc(Cc3ccc(S(=O)(=O)NCc4c(F)cccc4Cl)cc3)ccc2[nH]1` [Example 78, N-(2-Chloro-6-fluorobenzyl)-4-(2-oxo-4-trifluoromethyl-1,2-dihydroquinolin-6-ylmethyl)-benzenesulfonamide]: the IC50 is > 10 µM.

In turn, `CCOC(=O)CC(NS(=O)(=O)c1ccc(Cc2ccc3oc(=O)cc(C(F)(F)F)c3c2)cc1)c1ccccc1` (stereo not drawn) [Example 205, 3-[4-(2-Oxo-4-trifluoromethyl-2H-chromen-6-ylmethyl)-benzenesulfonylamino]-3-phenylpropionic acid ethyl ester] had an IC50 of 3.43 µM.

Take `O=c1cc(C(F)(F)F)c2cc(Cc3ccc(S(=O)(=O)N(CCO)C4CCCCC4)cc3)ccc2[nH]1` [Example 4, N-Cyclohexyl-N-(2-hydroxyethyl)-4-(2-oxo-4-trifluoromethyl-1,2-dihydroquinolin-6-ylmethyl)benzenesulfonamide]: the IC50 was > 10 µM.

For `CC(=O)c1cccc(NS(=O)(=O)c2ccc(Cc3ccc4oc(=O)cc(C(F)(F)F)c4c3)cc2)c1` [Example 129, N-(3-Acetylphenyl)-4-(2-oxo-4-trifluoromethyl-2H-chromen-6-ylmethyl)benzenesuifonamide], the IC50 amounted to 2.16 µM.

In turn, `CCCN(CC1CC1)S(=O)(=O)c1ccc(Cc2ccc3[nH]c(=O)cc(C(F)(F)F)c3c2)cc1` [Example 9A, N-Cyclopropylmethyl-4-(2-oxo-trifluoromethyl-1,2-dihydroquinolin-6-ylmethyl)-N-propylbenzenesulfonamide] returned an IC50 of 6.29 µM.

Regarding `O=c1cc(C(F)(F)F)c2cc(Cc3ccc(S(=O)(=O)NCc4c(F)ccc(F)c4Cl)cc3)ccc2[nH]1` [Example 87, N-(2-Chloro-3,6-difluorobenzyl)-4-(2-oxo-4-trifluoromethyl-1,2-dihydroquinolin-6-ylmethyl)-benzenesulfonamide], the IC50 was > 10 µM.

On to `O=c1cc(C(F)(F)F)c2cc(Cc3ccc(S(=O)(=O)NC[C@H](O)CO)cc3)ccc2o1` [Example 160, N-(2,3-Dihydroxypropyl)-4-(2-oxo-4-trifluoromethyl-2H-chromen-6-ylmethyl)benzenesulfonamide], for which the IC50 is > 10 µM.

As for `O=c1cc(C(F)(F)F)c2cc(Cc3ccc(S(=O)(=O)N(CCO)Cc4ccccc4)cc3)ccc2[nH]1` [Example 9, N-Benzyl-N-(2-hydroxyethyl)-4-(2-oxo-4-trifluoromethyl-1,2-dihydroquinolin-6-ylmethyl)benzenesulfonamide], the IC50 was > 10 µM.

`Cc1cccc(CNS(=O)(=O)c2ccc(Cc3ccc4[nH]c(=O)cc(C(F)(F)F)c4c3)cc2)c1` [Example 58, N-(3-Methylbenzyl)-4-(2-oxo-4-trifluoromethyl-1,2-dihydroquinolin-6-ylmethyl)-benzenesulfonamide]: the IC50 is > 10 µM.

In the case of `O=c1cc(C(F)(F)F)c2cc(Cc3ccc(S(=O)(=O)Nc4cccc(OCc5ccccc5)c4)cc3)ccc2o1` [Example 152, N-(3-Benzyloxyphenyl)-4-(2-oxo-4-trifluoromethyl-2H-chromen-6-ylmethyl)-benzenesulfonamide], the IC50 is 0.77 µM.

`CC(C)(C)SCCNS(=O)(=O)c1ccc(Cc2ccc3[nH]c(=O)cc(C(F)(F)F)c3c2)cc1` [Example 82, N-(2-tert-Butylsulfanylethyl)-4-(2-oxo-4-trifluoromethyl-1,2-dihydroquinolin-6-ylmethyl)-benzenesulfonamide]: the IC50 is > 10 µM.

The compound `CSc1n[nH]c(NS(=O)(=O)c2ccc(Cc3ccc4oc(=O)cc(C(F)(F)F)c4c3)cc2)c1C#N` [Example 138, N-(4-Cyano-5-methylsulfanyl-2H-pyrazol-3-yl)-4-(2-oxo-4-trifluoromethyl-2H-chromen-6-ylmethyl)benzenesulfonamide] showed an IC50 of 1.9 µM.

The compound `CCc1cccc(NS(=O)(=O)c2ccc(Cc3ccc4oc(=O)cc(C(F)(F)F)c4c3)cc2)c1` [Example 119, N-(3-Ethylphenyl)-4-(2-oxo-4-trifluoromethyl-2H-chromen-6-ylmethyl)-benzenesulfonamide] gave an IC50 of 3.42 µM.

`O=c1cc(C(F)(F)F)c2cc(Cc3ccc(S(=O)(=O)NCc4ccccc4C(F)(F)F)cc3)ccc2o1` [Example 201, 4-(2-Oxo-4-trifluoromethyl-2H-chromen-6-ylmethyl)-N-(2-trifluoromethylbenzyl)-benzenesulfonamide] gave a concentration for half-maximal inhibition (IC50) of 4.04 µM.

Regarding `O=c1cc(C(F)(F)F)c2cc(Cc3ccc(S(=O)(=O)Nc4ccccc4Br)cc3)ccc2[nH]1` [Example 40, N-(2-Bromophenyl)-4-(2-oxo-4-trifluoromethyl-1,2-dihydroquinolin-6-ylmethyl)-benzenesulfonamide], inhibition was half-maximal at 5.61 µM (IC50).

As for `O=c1cc(C(F)(F)F)c2cc(Cc3ccc(S(=O)(=O)Nc4cccc(OC(F)(F)F)c4)cc3)ccc2o1` [Example 147, 4-(2-Oxo-4-trifluoromethyl-2H-chromen-6-ylmethyl)-N-(3-trifluoromethoxyphenyl)-benzenesulfonamide], the IC50 was 8.58 µM.

For the compound `Cc1ccc(F)c(CNS(=O)(=O)c2ccc(Cc3ccc4[nH]c(=O)cc(C(F)(F)F)c4c3)cc2)c1Cl` [Example 84, N-(2-Chloro-6-fluoro-3-methylbenzyl)-4-(2-oxo-4-trifluoromethyl-1,2-dihydroquinolin-6-ylmethyl)-benzenesulfonamide], the IC50 was > 10 µM.

Turning to `O=c1cc(C(F)(F)F)c2cc(Cc3ccc(S(=O)(=O)NC(CCO)c4ccccc4)cc3)ccc2[nH]1` (stereo not drawn) [Example 72, N-(3-Hydroxy-1-phenylpropyl)-4-(2-oxo-4-trifluoromethyl-1,2-dihydroquinolin-6-ylmethyl)-benzenesulfonamide], the IC50 was > 10 µM.

On to `CCCCN(C)S(=O)(=O)c1ccc(Cc2ccc3[nH]c(=O)cc(C(F)(F)F)c3c2)cc1` [Example 9B, N-Butyl-N-methyl-4-(2-oxo-4-trifluoromethyl-1,2-dihydroquinolin-6-ylmethyl)benzenesulfonamide], for which the IC50 is > 10 µM.

`CCCN(CCO)S(=O)(=O)c1ccc(Cc2ccc3[nH]c(=O)cc(C(F)(F)F)c3c2)cc1` [Example 8, N-(2-Hydroxyethyl)-4-(2-oxo-4-trifluoromethyl-1,2-dihydroquinolin-6-ylmethyl)-N-propylbenzenesulfonamide] came in with an IC50 of 3.25 µM.

The compound `Cc1ccc(F)cc1CNS(=O)(=O)c1ccc(Cc2ccc3[nH]c(=O)cc(C(F)(F)F)c3c2)cc1` [Example 67, N-(5-Fluoro-2-methylbenzyl)-4-(2-oxo-4-trifluoromethyl-1,2-dihydroquinolin-6-ylmethyl)-benzenesulfonamide] showed an IC50 of 8.23 µM.

The compound `O=c1cc(C(F)(F)F)c2cc(Cc3ccc(S(=O)(=O)Nc4ccc5c(c4)OCO5)cc3)ccc2o1` [Example 131, N-Benzo[1,3]dioxol-5-yl-4-(2-oxo-4-trifluoromethyl-2H-chromen-6-ylmethyl)-benzenesulfonamide] yielded an IC50 of 2.4 µM.

`CCOC(=O)Cc1ccc(NS(=O)(=O)c2ccc(Cc3ccc4oc(=O)cc(C(F)(F)F)c4c3)cc2)cc1` [Example 148, {4-[4-(2-Oxo-4-trifluoromethyl-2H-chromen-6-ylmethyl)-benzenesulfonylamino]-phenyl}acetic acid ethyl ester] displayed an IC50 of 3.13 µM.

Compound `O=c1cc(C(F)(F)F)c2cc(Cc3ccc(S(=O)(=O)N(CCO)C4CCCCC4)cc3)ccc2o1` [Example 95, N-Cyclohexyl-N-(2-hydroxyethyl)-4-(2-oxo-4-trifluoromethyl-2H-chromen-6-ylmethyl)benzenesulfonamide] registered a half-maximal inhibitory concentration (IC50) of 1.03 µM.
